Assay results reported in US10869929B2, “Phosphonate linkers and their use to facilitate cellular retention of compounds” (priority 2016, dated 2020).

How the values were obtained:
GILZ gene = GILZ gene assay (qPCR, HUT78 / 786-O cells); format: cell-based; conditions: for EC50: read-out: GILZ EC50
Experimental: GILZ gene assays were conducted as follows. HUT78 cells were cultured in IMEM plus 20% heat inactivated FBS and cell density was maintained between 0.1 to 1.2 million/mL. 786-O cells were cultured in RPMI plus 10% heat inactivated FBS. Actively growing cells were harvested and resuspended in HBSS with 2% FBS at 1.1 million cells per mL then dispensed to 384-well V-bottom plates at 45 μL per well. Serially diluted ADC solution was added to the cell plate (5 μL per well) and mixed for 2 min. Cells were then cultured at 37° C., at 5% CO2 for a designated time before supernatant was removed. Cells were harvested in lysis buffer from the Cells-to-Ct kit (40 μL, Life Technologies, 4391851C) following the supplier's protocol and mixed for 10 min followed by addition of 5 μL per well of stop solution from the kit. cDNA was synthesized with a reverse transcription kit (Life Technologies, 4391852C) follow by qPCR using the TaqMan gene expression master mix (Life Technologies, 4369016) with GILZ gene assay (Life Technologies, Hs00608272_m1) and GAPDH assay (Hs2758991_g1) in a duplex format with 3-4 technical replicates.

ZBTB16 mRNA = assay: Up-regulation of ZBTB16 mRNA in primary human B cells; format: cell-based; conditions: for EC50: free payload
Experimental: The carrier solution for all ADCs and naked antibodies was 50 mM histidine pH 6.0, 100 mM NaCl and 5% trehelose. To assure consistency across experiments, ADCs were thawed on ice, dispensed to small aliquots, frozen to −80° C., and those aliquots were then used for experiments with unused material discarded at the end of the day. For all in vitro studies in this report, none of the read outs were measurably different in the presence or absence of the carrier solution. Nevertheless, the final concentration of antibody carrier solution was maintained constant at 1% v/v by serially diluting antibody solution prior to addition to the assay mixture and adding carrier solution to control wells.
For the studies of ADCs bearing reduced permeability payloads frozen human CD19+ B cells purchased from Precision Biosciences (catalog #84400, donor #13108) were thawed and re-suspended in RPMI1640 plus 10% heat-inactivated FBS (cell culture medium) at 1 million cells/mL. […] B cells were bulk treated in a 96-well block and subsequently dispensed to 96 well plates (100 μL and […] cells per well) and incubated at 37° C., 5% CO2 for 18 or 40 hr. Control wells containing equal percentages of DMSO (0.1%) and ADC buffer (1%) as sample wells were included. Cells were transferred to a 96 well v-bottom plate and spun at 500×g for 5 min. Medium was removed and cells were lysed in 150 μL RLT buffer containing beta-mercaptoethanol. RNA was isolated (RNeasy 96 kit, Qiagen, Cat #74181) and cDNA was synthesized (iScript cDNA Synthesis Kit, BioRad, Cat #170-8891) according to the supplier's protocol. Quantitative PCR was performed on Applied Biosystem's 7900 HT Real-Time PCR System to measure expression of ZBTB16 (Life Technologies, Hs00957433_m1) and GAPDH (Life Technologies, Hs02758991_g1) in duplex format.
The ΔΔCt method was used to calculate fold change of expression of ZBTB16 relative to control sample, using 3 replicates per treatment condition. For free cell impermeable compounds, B cells were seeded at 100,000 cells/well in 90 μL in a 96-well flat bottom plate. Three fold serial dilutions were performed in DMSO, subsequent intermediate 10× stocks were made in tissue-culture medium and then added to the cell plate (10 μL/well). Cells were incubated at 37° C., 5% CO2 for 18 hr, harvested and processed for PCR as described above. EC50 curves were calculated using Graph Pad Prism 6 software using nonlinear fit (agonist) vs. response-variable slope (four parameters) calculation.
Potency and maximum activity of reduced permeability glucocorticoids (free payload) and the corresponding anti-CD74-drug conjugates on up-regulation of ZBTB16 mRNA levels in primary human B cells in vitro.

MDCKII cells = assay: Apparent permeability in MDCKII cells; format: in vitro ADME; conditions: 1 μM, t=3 hr, average of A to B and B to A Papp
Experimental: Determination of apparent permeability was as follows. MDCKII cells (kindly provided by the Netherlands Cancer Institute, under a licensing agreement) were seeded on to 96-well transwell culture plates (Millipore Corp, Billerica, Mass.) and used in experiments after five days in culture. […] Substrate solution (150 μL) was added to either the apical (A) or the basolateral (B) compartment of the culture plate, and buffer (150 μL; HBSS, 10 mM HEPES, pH 7.4) with 10 μM cyclosporine A was added to the compartment opposite to that containing the substrate. At t=3 hr, 50 μL samples were removed from both sides of monolayers dosed with test compound and placed in 96 well plates, 50 μL internal standard (1 μM labetolol) and 100 μL HBSS was added to the samples. Samples were analyzed by LC/MS/MS using an Applied Biosystems SCIEX API 5000 triple quadruple mass spectrometer (Concord, ON, Canada) with a TurbolonSpray ion source in the positive ion mode. A Thermo Scientific Transcend LX-2 system (Franklin, Mass.) was coupled to the API 5000 with a flow rate of 800 μL/min to direct sample into the mass spectrometer.
Papp was expressed as 10^−6 cm/s.

glucocorticoid receptor = glucocorticoid receptor (Homo sapiens (Human), UniProt P04150); assay: PolarScreen Glucocorticoid Receptor Competitor Assay (GR binding); conditions: fluormone GS red, GR full length protein; read-out: GR Bind IC50
Chain of glucocorticoid receptor (P04150 whole entry): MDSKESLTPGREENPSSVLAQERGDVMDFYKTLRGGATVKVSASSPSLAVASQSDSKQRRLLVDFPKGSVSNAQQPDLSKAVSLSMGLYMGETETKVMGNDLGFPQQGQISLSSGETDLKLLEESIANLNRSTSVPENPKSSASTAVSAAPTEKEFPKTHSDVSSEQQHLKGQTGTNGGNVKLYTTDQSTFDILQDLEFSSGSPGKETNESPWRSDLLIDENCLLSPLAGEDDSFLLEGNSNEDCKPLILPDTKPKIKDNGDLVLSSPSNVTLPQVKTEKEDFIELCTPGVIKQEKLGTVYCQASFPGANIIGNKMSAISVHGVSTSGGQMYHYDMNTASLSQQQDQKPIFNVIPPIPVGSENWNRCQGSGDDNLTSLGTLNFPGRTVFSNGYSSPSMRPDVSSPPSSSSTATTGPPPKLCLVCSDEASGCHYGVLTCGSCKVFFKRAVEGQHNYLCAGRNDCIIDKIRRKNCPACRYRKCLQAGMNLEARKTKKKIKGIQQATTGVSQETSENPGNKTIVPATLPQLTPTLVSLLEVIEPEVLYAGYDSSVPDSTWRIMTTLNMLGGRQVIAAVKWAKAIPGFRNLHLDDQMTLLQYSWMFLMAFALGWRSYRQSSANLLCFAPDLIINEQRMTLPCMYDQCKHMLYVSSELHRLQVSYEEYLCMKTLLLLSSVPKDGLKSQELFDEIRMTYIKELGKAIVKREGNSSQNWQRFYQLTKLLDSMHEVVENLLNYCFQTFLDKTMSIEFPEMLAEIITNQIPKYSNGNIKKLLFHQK
Experimental: The potency of binding to glucocorticoid receptor by small molecule compounds was measured with the PolarScreen™ Glucocorticoid Receptor Competitor Assay Kit, Red (Life Technology, Catalog #A15898) according to the procedure in the kit. In brief, after compounds were diluted and transferred into assay plates, the fluormone GS red and GR full length protein were subsequently added into the assay plates, along with the positive and negative controls. The samples were mixed on a shaker for 1 minute and then the plates were incubated at room temperature for 2-4 hours with minimal light exposure. The plates were read with an Envision and the relative fluorescent signals were calculated. The data were plotted in GraphPad Prism and the EC50 values were calculated with non-linear regression curve fit of the data in GraphPad Prism.

Row | Compound | GILZ Max (GILZ gene; at 10 uM) | EC50 (GILZ gene) [nM] | ZBTB16 mRNA Max relative to free fluticasone (ZBTB16 mRNA) [%] | EC50 (ZBTB16 mRNA; B-cell) [nM] | MDCK Permeability (cm × 10−6/sec) (MDCKII cells) | IC50 (glucocorticoid receptor) [nM] | GILZ Max (GILZ gene; at 100 nM) | GILZ Max (GILZ gene; concentration not given) [%] | EC50 (ZBTB16 mRNA) [nM]
1 | CCC(=O)O[C@]1(C(=O)SCCCCCCCCCCP(=O)(O)O)[C@H](C)C[C@H]2[C@@H]3C[C@H](F)C4=CC(=O)C=C[C@]4(C)[C@@]3(F)[C@@H](O)C[C@@]21C [Compound 3, (10-(((6S,8S,9R,10S,11S,13S,14S,16R,17R)-6,9-difluoro-11-hydroxy-10,13,16-trimethyl-3-oxo-17-(propionyloxy)-6,7,8,9,10,11,12,13,14,15,16,17-dodecahydro-3H-cyclopenta[a]phenanthrene-17-carbonyl)thio)decyl)phosphonic acid] | 71% (at | 649 | 75 | 1100 | 1.04 | 0.44 |  |  | 
2 | C[C@@H]1C[C@H]2[C@@H]3C[C@H](F)C4=CC(=O)C=C[C@]4(C)[C@@]3(F)[C@@H](O)C[C@]2(C)[C@@]1(O)C(=O)SCCCP(=O)(O)O [Compound 13] | 24% (at | > 10000 |  |  |  | 1220 |  |  | 
3 | CCCC1O[C@@H]2C[C@H]3[C@@H]4CCC5=Cc6c(cnn6-c6cccc(OCCCCCCCCCP(=O)(O)O)c6)C[C@]5(C)[C@H]4[C@@H](O)C[C@]3(C)[C@]2(C(=O)CO)O1 (stereo partly drawn) [Compound 29] | 96% (at | 558 |  |  |  | 24.2 |  |  | 
4 | CCCC1O[C@@H]2C[C@H]3[C@@H]4CCC5=Cc6c(cnn6-c6ccc(OCCCCP(=O)(O)O)cc6)C[C@]5(C)[C@H]4[C@@H](O)C[C@]3(C)[C@]2(C(=O)CO)O1 (stereo partly drawn) [Compound 30] | 61% (at | 3010 |  |  | 1.9 | 2.4 |  |  | 
5 | CCC(=O)O[C@]1(C(=O)SCCOCCOCCP(=O)(O)O)[C@H](C)C[C@H]2[C@@H]3C[C@H](F)C4=CC(=O)C=C[C@]4(C)[C@@]3(F)[C@@H](O)C[C@@]21C [Compound 6] | 40% (at | > 10000 |  |  |  | 0.32 |  |  | 
6 | CCC(=O)O[C@]1(C(=O)SCCCCCCP(=O)(O)O)[C@H](C)C[C@H]2[C@@H]3C[C@H](F)C4=CC(=O)C=C[C@]4(C)[C@@]3(F)[C@@H](O)C[C@@]21C [Compound 7] | 64% (at | 6450 |  |  | 2 | 0.45 |  |  | 
7 | CCCC1O[C@@H]2C[C@H]3[C@@H]4CCC5=Cc6c(cnn6-c6cccc(OCCCCP(=O)(O)O)c6)C[C@]5(C)[C@H]4[C@@H](O)C[C@]3(C)[C@]2(C(=O)CO)O1 (stereo partly drawn) [Compound 28] | 101% (at | 1270 |  |  | 1.6 | 4.1 |  |  | 
8 | CCC(=O)O[C@]1(C(=O)SCCCCP(=O)(O)O)[C@H](C)C[C@H]2[C@@H]3C[C@H](F)C4=CC(=O)C=C[C@]4(C)[C@@]3(F)[C@@H](O)C[C@@]21C [Compound 4] |  | > 100 |  |  | 1.72 | 0.71 | <10% (at |  | 
9 | C[C@@H]1C[C@H]2[C@@H]3C[C@H](F)C4=CC(=O)C=C[C@]4(C)[C@@]3(F)[C@@H](O)C[C@]2(C)[C@@]1(O)C(=O)SCCCCCCP(=O)(O)O [Compound 10] | 17.3% | > 10000 |  |  | 1.9 | 1.99 |  |  | 
10 | C[C@@H]1C[C@H]2[C@@H]3C[C@H](F)C4=CC(=O)C=C[C@]4(C)[C@@]3(F)[C@@H](O)C[C@]2(C)[C@@]1(O)C(=O)SCCOCCOCCP(=O)(O)O [Compound 9] | 14.5% | > 10000 |  |  |  | 1.67 |  |  | 
11 | C[C@@H]1C[C@H]2[C@@H]3CCC4=CC(=O)C=C[C@]4(C)[C@@]3(F)[C@@H](O)C[C@]2(C)[C@@]1(O)C(=O)CO [Dexamethasone, reference compound] |  | 3.7 |  |  |  |  |  | 100 | 
12 | (6-(3-((3aR,4aS,4bS,11aR,11bS,12S,13aS,13bS)-12-hydroxy-13b-(2-hydroxyacetyl)-11a,13a-dimethyl-2-propyl-4,4a,5,6,11,11a,11b,12,13,13a-decahydro-[1,3]dioxolo[4″,5″:3′,4′]cyclopenta[1′,2′:5,6]naphtho[1,2-f]indazol-8 (3aH,4bH,13bH)-yl)phenoxy)hexyl)phosphonic acid [Compound 27] | 80% (at | 2760 |  |  |  |  |  |  | 
13 | CCCC1O[C@@H]2C[C@H]3[C@@H]4CCC5=CC(=O)C=C[C@]5(C)[C@H]4[C@@H](O)C[C@]3(C)[C@]2(C(=O)CO)O1 (stereo partly drawn) [Budesonide, reference compound] |  | 1 |  |  | 31.6 |  |  | 100 | 
14 | C[C@@H]1C[C@H]2[C@@H]3C[C@H](F)C4=CC(=O)C=C[C@]4(C)[C@@]3(F)[C@@H](O)C[C@]2(C)[C@@]1(O)C(=O)SCCP(=O)(O)O [Compound 11] | 81% (at | 2860 |  |  |  |  |  |  | 
15 | C[C@@H]1C[C@H]2[C@@H]3C[C@H](F)C4=CC(=O)C=C[C@]4(C)[C@@]3(F)[C@@H](O)C[C@]2(C)[C@@]1(O)C(=O)SCCCCP(=O)(O)O [Compound 5] |  | > 10000 |  |  | 1.84 | 160 | 24% (at |  | 
16 | CCCC1O[C@@H]2C[C@H]3[C@@H]4CCC5=Cc6c(cnn6-c6ccc(OCCCCCCP(=O)(O)O)cc6)C[C@]5(C)[C@H]4[C@@H](O)C[C@]3(C)[C@]2(C(=O)CO)O1 (stereo partly drawn) [Compound 31] | 47% (at | 4180 |  |  | 4.1 | 3.9 |  |  | 
17 | CCCC1O[C@@H]2C[C@H]3[C@@H]4CCC5=Cc6c(cnn6-c6ccc(OCCCCCCCCCP(=O)(O)O)cc6)C[C@]5(C)[C@H]4[C@@H](O)C[C@]3(C)[C@]2(C(=O)CO)O1 (stereo partly drawn) [Compound 32] | 86% (at | 4150 |  |  |  | 115 |  |  | 
18 | C[C@@H]1C[C@H]2[C@@H]3C[C@H](F)C4=CC(=O)C=C[C@]4(C)[C@@]3(F)[C@@H](O)C[C@]2(C)[C@@]1(O)C(=O)SCCCCCCCCCCP(=O)(O)O [Compound 8] | 66% (at | 970 |  |  | 2.8 | 0.25 |  |  | 
19 | CCC(=O)O[C@]1(C(=O)SCCCP(=O)(O)O)[C@H](C)C[C@H]2[C@@H]3C[C@H](F)C4=CC(=O)C=C[C@]4(C)[C@@]3(F)[C@@H](O)C[C@@]21C [Compound 14] | 15% (at | > 10000 |  |  |  | 18.1 |  |  | 
20 | CCC(=O)O[C@]1(C(=O)SCF)[C@H](C)C[C@H]2[C@@H]3C[C@H](F)C4=CC(=O)C=C[C@]4(C)[C@@]3(F)[C@@H](O)C[C@@]21C [Fluticasone Propionate, reference compound] |  | 0.2 |  |  | 21.5 |  |  | 100 | 0.019
21 | CCC(=O)O[C@]1(C(=O)SCCP(=O)(O)O)[C@H](C)C[C@H]2[C@@H]3C[C@H](F)C4=CC(=O)C=C[C@]4(C)[C@@]3(F)[C@@H](O)C[C@@]21C [Compound 12] | 36% (at | 6780 |  |  |  | 162 |  |  | 
22 | C[C@@H]1C[C@H]2[C@@H]3C[C@H](F)C4=CC(=O)C=C[C@]4(C)[C@@]3(F)[C@@H](O)C[C@]2(C)[C@@]1(OC(=O)CCCCCP(=O)(O)O)C(=O)SCF [Compound 19, (6-(((6S,8S,9R,10S,11S,13S,14S,16R,17R)-6,9-difluoro-17-(((fluoromethyl)thio)carbonyl)-11-hydroxy-10,13,16-trimethyl-3-oxo-6,7,8,9,10,11,12,13,14,15,16,17-dodecahydro-3H-cyclopenta[a]phenanthren-17-yl)oxy)-6-oxohexyl)phosphonic acid] | 88% (at | 1290 |  |  |  | 0.14 |  |  | 
